{
  "source": "PubChem BioAssay AID330",
  "about": "(DTP/NCI, 2004)",
  "system": "P388 leukemia ip, CD2F1 mice, survival T/C",
  "assay": "NCI In Vivo Anticancer Drug Screen. Data for tumor model P388 Leukemia (intraperitoneal) in CD2F1 (CDF1) mice",
  "conditions": "endpoint: median survival time, higher = longer survival",
  "how_it_was_run": "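Mice carrying the transplanted tumor received test compound or vehicle. Survival was recorded in each group, and the value is the treated-group measurement divided by that of the vehicle-treated control group.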",
  "key": {"[1]": {"conditions": "dose: 6.25 mg/kg/injection, schedule: Q01DX005 (ip), vehicle: Klucel (hydroxypropylcellulose) (HPC)"}, "[2]": {"conditions": "dose: 12.5 mg/kg/injection, schedule: Q01DX005 (ip), vehicle: Klucel (hydroxypropylcellulose) (HPC)"}, "[3]": {"conditions": "dose: 50.0 mg/kg/injection, schedule: Q01DX009 (ip), vehicle: Klucel (hydroxypropylcellulose) (HPC)"}, "[4]": {"conditions": "dose: 100.0 mg/kg/injection, schedule: Q01DX009 (ip), vehicle: Klucel (hydroxypropylcellulose) (HPC)"}, "[5]": {"conditions": "dose: 200.0 mg/kg/injection, schedule: Q01DX009 (ip), vehicle: Klucel (hydroxypropylcellulose) (HPC)"}},
  "note": "Where “and” joins values, the source holds several entries; their conditions need not be identical. Equal entries are not always repeated. Inconclusive results and toxic doses are left out.",
  "data": [
    {"smiles": "COc1ccc(-n2c(C)c(COC(=O)NC(C)C)c(COC(=O)NC(C)C)c2C)cc1", "values": [
      {"measurement": "T/C", "setting": "dose: 20.0 mg/kg/injection, schedule: Q01DX005 (ip), vehicle: Klucel (hydroxypropylcellulose) (HPC)", "value": "163 % of control"},
      {"measurement": "T/C", "setting": "dose: 40.0 mg/kg/injection, schedule: Q01DX005 (ip), vehicle: Klucel (hydroxypropylcellulose) (HPC)", "value": "172 % of control"},
      {"measurement": "T/C", "setting": "dose: 60.0 mg/kg/injection, schedule: Q01DX005 (ip), vehicle: Klucel (hydroxypropylcellulose) (HPC)", "value": "150 % of control and 186 % of control"},
      {"measurement": "T/C", "setting": "dose: 120.0 mg/kg/injection, schedule: Q01DX005 (ip), vehicle: Klucel (hydroxypropylcellulose) (HPC)", "value": "181 % of control"}
    ]},
    {"smiles": "C[CH2][Sn]([O][Sn]([Cl])([CH2]C)[c]1ccccc1)[c]1ccccc1", "note": "(stereo not given)", "values": [
      {"measurement": "T/C", "setting": "dose: 3.12 mg/kg/injection, schedule: Q01DX005 (ip), vehicle: Klucel (hydroxypropylcellulose) (HPC)", "value": "118 % of control"},
      {"measurement": "T/C", "setting": "[1]", "value": "101 % of control"},
      {"measurement": "T/C", "setting": "[2]", "value": "101 % of control"}
    ]},
    {"smiles": "OCC1OC(n2cnc3c(NCc4ccco4)ncnc32)C(O)C1O", "note": "(stereo not given)", "values": [
      {"measurement": "T/C", "setting": "dose: 50.0 mg/kg/injection, schedule: Q01DX009 (ip), vehicle: saline with Tween-80", "value": "111 % of control"},
      {"measurement": "T/C", "setting": "dose: 100.0 mg/kg/injection, schedule: Q01DX009 (ip), vehicle: saline with Tween-80", "value": "93 % of control"},
      {"measurement": "T/C", "setting": "dose: 200.0 mg/kg/injection, schedule: Q01DX009 (ip), vehicle: saline with Tween-80", "value": "118 % of control"}
    ]},
    {"smiles": "OCC1(O)OCC(O)C(O)C1O", "note": "(stereo not given)", "values": [
      {"measurement": "T/C", "setting": "dose: 100.0 mg/kg/injection, schedule: Q01DX009 (ip), vehicle: saline", "value": "99 % of control"},
      {"measurement": "T/C", "setting": "dose: 200.0 mg/kg/injection, schedule: Q01DX009 (ip), vehicle: saline", "value": "98 % of control"},
      {"measurement": "T/C", "setting": "dose: 400.0 mg/kg/injection, schedule: Q01DX009 (ip), vehicle: saline", "value": "105 % of control"}
    ]},
    {"smiles": "COC1C(=O)OC(=O)C1OC", "note": "(stereo not given)", "values": [
      {"measurement": "T/C", "setting": "dose: 15.0 mg/kg/injection, schedule: Q01DX005 (ip), vehicle: saline", "value": "109 % of control and 117 % of control"},
      {"measurement": "T/C", "setting": "dose: 30.0 mg/kg/injection, schedule: Q01DX005 (ip), vehicle: saline", "value": "102 % of control and 117 % of control"},
      {"measurement": "T/C", "setting": "dose: 60.0 mg/kg/injection, schedule: Q01DX005 (ip), vehicle: saline", "value": "100 % of control and 109 % of control and 90 % of control"}
    ]},
    {"smiles": "C=C1C(=O)OC2CCC3OC(C)(C)OC3C12", "note": "(stereo not given)", "values": [
      {"measurement": "T/C", "setting": "dose: 12.5 mg/kg/injection, schedule: Q01DX009 (ip), vehicle: DMSO", "value": "95 % of control"},
      {"measurement": "T/C", "setting": "dose: 25.0 mg/kg/injection, schedule: Q01DX009 (ip), vehicle: DMSO", "value": "122 % of control"},
      {"measurement": "T/C", "setting": "dose: 50.0 mg/kg/injection, schedule: Q01DX009 (ip), vehicle: DMSO", "value": "101 % of control"},
      {"measurement": "T/C", "setting": "dose: 100.0 mg/kg/injection, schedule: Q01DX009 (ip), vehicle: DMSO", "value": "110 % of control"},
      {"measurement": "T/C", "setting": "dose: 200.0 mg/kg/injection, schedule: Q01DX009 (ip), vehicle: DMSO", "value": "113 % of control"}
    ]},
    {"smiles": "CCCCCn1cnc2cc(N3CCOCC3)c([N+](=O)[O-])cc2c1=O", "values": [
      {"measurement": "T/C", "setting": "dose: 100.0 mg/kg/injection, schedule: Q04DX003 (ip), vehicle: Klucel (hydroxypropylcellulose) (HPC)", "value": "103 % of control"},
      {"measurement": "T/C", "setting": "dose: 200.0 mg/kg/injection, schedule: Q04DX003 (ip), vehicle: Klucel (hydroxypropylcellulose) (HPC)", "value": "96 % of control"},
      {"measurement": "T/C", "setting": "dose: 400.0 mg/kg/injection, schedule: Q04DX003 (ip), vehicle: Klucel (hydroxypropylcellulose) (HPC)", "value": "96 % of control"}
    ]},
    {"smiles": "O=C(Nc1cccc2ccccc12)C1C(=O)C(=O)N(c2cccc3ccccc23)C1=O", "note": "(stereo not given)", "values": [
      {"measurement": "T/C", "setting": "[3]", "value": "103 % of control"},
      {"measurement": "T/C", "setting": "[4]", "value": "105 % of control"},
      {"measurement": "T/C", "setting": "[5]", "value": "100 % of control"}
    ]},
    {"smiles": "c1ccc2c(c1)[nH]c1c2c(N2CCOCC2)nn2cnnc12", "values": [
      {"measurement": "T/C", "setting": "[1]", "value": "101 % of control"},
      {"measurement": "T/C", "setting": "[2]", "value": "100 % of control"},
      {"measurement": "T/C", "setting": "dose: 25.0 mg/kg/injection, schedule: Q01DX005 (ip), vehicle: Klucel (hydroxypropylcellulose) (HPC)", "value": "89 % of control"},
      {"measurement": "T/C", "setting": "dose: 50.0 mg/kg/injection, schedule: Q01DX005 (ip), vehicle: Klucel (hydroxypropylcellulose) (HPC)", "value": "99 % of control"},
      {"measurement": "T/C", "setting": "dose: 60.0 mg/kg/injection, schedule: Q01DX005 (ip), vehicle: saline with Tween-80", "value": "95 % of control"},
      {"measurement": "T/C", "setting": "dose: 100.0 mg/kg/injection, schedule: Q01DX005 (ip), vehicle: Klucel (hydroxypropylcellulose) (HPC)", "value": "100 % of control"},
      {"measurement": "T/C", "setting": "dose: 120.0 mg/kg/injection, schedule: Q01DX005 (ip), vehicle: saline with Tween-80", "value": "93 % of control"},
      {"measurement": "T/C", "setting": "dose: 240.0 mg/kg/injection, schedule: Q01DX005 (ip), vehicle: saline with Tween-80", "value": "98 % of control"}
    ]},
    {"smiles": "O=C(N/N=C/c1cc(Br)cc(Br)c1[O-])c1ccccc1.O=C(N/N=C/c1cc(Br)cc(Br)c1[O-])c1ccccc1.[Cu+2]", "values": [
      {"measurement": "T/C", "setting": "dose: 12.5 mg/kg/injection, schedule: Q01DX001 (ip), vehicle: saline with Tween-80", "value": "91 % of control"},
      {"measurement": "T/C", "setting": "dose: 25.0 mg/kg/injection, schedule: Q01DX001 (ip), vehicle: saline with Tween-80", "value": "89 % of control"},
      {"measurement": "T/C", "setting": "dose: 50.0 mg/kg/injection, schedule: Q01DX001 (ip), vehicle: saline with Tween-80", "value": "100 % of control"}
    ]},
    {"smiles": "NC(CSCCCSCC(N)C(=O)O)C(=O)O", "note": "(stereo not given)", "values": [
      {"measurement": "T/C", "setting": "dose: 25.0 mg/kg/injection, schedule: Q01DX001 (ip), vehicle: Klucel (hydroxypropylcellulose) (HPC)", "value": "97 % of control"},
      {"measurement": "T/C", "setting": "dose: 50.0 mg/kg/injection, schedule: Q01DX001 (ip), vehicle: Klucel (hydroxypropylcellulose) (HPC)", "value": "97 % of control"},
      {"measurement": "T/C", "setting": "dose: 100.0 mg/kg/injection, schedule: Q01DX001 (ip), vehicle: Klucel (hydroxypropylcellulose) (HPC)", "value": "96 % of control and 97 % of control"},
      {"measurement": "T/C", "setting": "dose: 200.0 mg/kg/injection, schedule: Q01DX001 (ip), vehicle: Klucel (hydroxypropylcellulose) (HPC)", "value": "104 % of control"}
    ]},
    {"smiles": "CCSc1nc2ccc(NC(=O)/C=C/C(=O)O)cc2s1", "values": [
      {"measurement": "T/C", "setting": "[3]", "value": "103 % of control"},
      {"measurement": "T/C", "setting": "[4]", "value": "90 % of control"},
      {"measurement": "T/C", "setting": "[5]", "value": "95 % of control"}
    ]}
  ]
}
